Experimental data taken from patent publication US9738655B2, “Tetrahydroisoquinolines containing substituted azoles as factor XIa inhibitors” (BRISTOL-MYERS SQUIBB COMPANY, priority 2013, dated 2017).
Where a name gives a salt, the structure may show the parent alone. Read-outs that look alike come from different tables or passages of the source.

Legend:
[1] = target: purified human plasma kallikrein (Homo sapiens (Human), UniProt P03952); assay: Plasma kallikrein enzyme inhibition assay (chromogenic substrate S-2302); assay type: biochemical
Method: The effectiveness of compounds of the present invention as inhibitors of the coagulation Factors XIa, VIIa, IXa, Xa, XIIa, plasma kallikrein or thrombin, can be determined using a relevant purified serine protease, respectively, and an appropriate synthetic substrate. The rate of hydrolysis of the chromogenic or fluorogenic substrate by the relevant serine protease was measured both in the absence and presence of compounds of the present invention. […] A decrease in the rate of absorbance or fluorescence change in the presence of inhibitor is indicative of enzyme inhibition. […] The results of this assay are expressed as the inhibitory constant, Ki.
Values of Ki were determined by allowing the protease to react with the substrate in the presence of the inhibitor.
The following relationships were used to calculate Ki values: (Vmax*S)/(Km+S); (vo−vs)/vs=I/(Ki(1+S/Km)) for a competitive inhibitor with one binding site; or vs/vo=A+((B−A)/1+((IC50/(I)n))); and Ki−IC50/((1+S/Km) for a competitive inhibitor where:

[2] = target: purified human Factor XIa (Homo sapiens (Human), UniProt P03951); assay: Factor XIa enzyme inhibition assay (chromogenic substrate S-2366)
[3] = measured at 25° C. (no asterisk)
[4] = read-out: Factor XIa Ki, measured at 25° C.
[5] = measured at 25° C. (no asterisk), TFA salt
[6] = read-out: Factor XIa Ki, measured at 25° C., TFA salt

Sequence of purified human Factor XIa (P03951 388-625): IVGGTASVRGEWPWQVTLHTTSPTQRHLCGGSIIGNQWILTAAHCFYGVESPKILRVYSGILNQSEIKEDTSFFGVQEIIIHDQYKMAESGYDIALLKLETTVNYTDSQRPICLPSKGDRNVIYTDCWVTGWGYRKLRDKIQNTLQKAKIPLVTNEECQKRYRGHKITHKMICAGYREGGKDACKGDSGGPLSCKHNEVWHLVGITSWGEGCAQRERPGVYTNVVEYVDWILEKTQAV
Sequence of purified human Factor XIa (P03951 19-387 partner): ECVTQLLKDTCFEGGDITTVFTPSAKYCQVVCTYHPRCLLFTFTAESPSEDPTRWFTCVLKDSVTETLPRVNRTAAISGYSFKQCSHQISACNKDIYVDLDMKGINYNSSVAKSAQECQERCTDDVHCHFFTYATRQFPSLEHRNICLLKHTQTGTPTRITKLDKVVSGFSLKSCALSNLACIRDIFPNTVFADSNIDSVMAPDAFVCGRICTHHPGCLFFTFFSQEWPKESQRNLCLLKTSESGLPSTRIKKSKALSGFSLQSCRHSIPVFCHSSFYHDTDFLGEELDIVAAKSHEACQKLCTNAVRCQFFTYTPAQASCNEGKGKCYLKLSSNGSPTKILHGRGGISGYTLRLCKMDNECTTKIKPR
Sequence of purified human plasma kallikrein (P03952 391-638): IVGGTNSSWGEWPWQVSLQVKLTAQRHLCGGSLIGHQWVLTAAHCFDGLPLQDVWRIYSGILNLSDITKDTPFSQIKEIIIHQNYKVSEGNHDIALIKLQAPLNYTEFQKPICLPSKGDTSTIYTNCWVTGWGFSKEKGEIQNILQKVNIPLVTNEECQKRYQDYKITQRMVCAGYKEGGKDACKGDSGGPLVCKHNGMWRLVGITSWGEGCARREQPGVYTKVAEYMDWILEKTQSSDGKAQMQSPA
Sequence of purified human plasma kallikrein (P03952 20-390 partner): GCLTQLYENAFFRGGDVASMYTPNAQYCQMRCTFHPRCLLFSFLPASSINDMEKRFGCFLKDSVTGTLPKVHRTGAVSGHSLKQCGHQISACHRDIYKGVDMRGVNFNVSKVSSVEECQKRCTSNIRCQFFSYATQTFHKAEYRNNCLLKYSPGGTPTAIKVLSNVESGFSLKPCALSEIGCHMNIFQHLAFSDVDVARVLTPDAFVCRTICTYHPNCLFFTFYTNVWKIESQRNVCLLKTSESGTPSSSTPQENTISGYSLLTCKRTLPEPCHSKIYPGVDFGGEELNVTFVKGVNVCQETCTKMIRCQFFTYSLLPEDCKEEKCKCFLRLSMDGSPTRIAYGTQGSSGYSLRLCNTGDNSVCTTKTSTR

| SMILES | Ki [1, 3] | Ki [2, 4] | also measured |
| --- | --- | --- | --- |
| Nc1cccc2c1CCN(C(=O)c1cn(-c3cccc(Cl)c3F)nn1)C2C(=O)Nc1ccc(C(=O)O)cc1 (centres unmarked) [Example 334, 4-(5-Amino-2-(1-(3-chloro-2-fluorophenyl)-1H-1,2,3-triazole-4-carbonyl)-1,2,3,4-tetrahydroisoquinoline-1-carboxamido)benzoic acid, TFA salt] | 6.26 nM | 10.6 nM |  |
| CN1CCN(c2cccc3c2CCN(C(=O)C2CC(c4cccc(Cl)c4F)=NO2)C3C(=O)Nc2ccc(C(=O)O)cc2)CC1=O (single isomer, unassigned) [Example 281, 4-(2-(3-(3-chloro-2-fluorophenyl)-4,5-dihydroisoxazole-5-carbonyl)-5-(4-methyl-3-oxopiperazin-1-yl)-1,2,3,4-tetrahydroisoquinoline-1-carboxamido)benzoic acid, TFA] |  |  | Ki ([1]; measured at 25° C. (no asterisk), TFA): 79 nM; Ki ([2]; read-out: Factor XIa Ki, measured at 25° C., TFA): 12.8 nM |
| O=C(O)c1ccc(NC(=O)C2c3cccc(N4CCOCC4=O)c3CCN2C(=O)c2cn(-c3cccc(Cl)c3F)nn2)cc1 (centres unmarked) [Example 69, 4-(2-(1-(3-chloro-2-fluorophenyl)-1H-1,2,3-triazole-4-carbonyl)-5-(3-oxomorpholino)-1,2,3,4-tetrahydroisoquinoline-1-carboxamido)benzoic acid] | 9.92 nM | < 5 nM |  |
| CN1CCN(c2cccc3c2CCN(C(=O)c2cn(-c4cccc(Cl)c4F)nn2)C3C(=O)Nc2ccc(C(=O)O)cc2)CC1=O (racemic) [Example 274, 4-(2-(1-(3-chloro-2-fluorophenyl)-1H-1,2,3-triazole-4-carbonyl)-5-(4-methyl-3-oxopiperazin-1-yl)-1,2,3,4-tetrahydroisoquinoline-1-carboxamido)benzoic acid, TFA salt] | 4.87 nM |  | Ki [2]: < 5 nM |
| CN(C)CCNC(=O)c1ccc(-c2cccc3c2CCN(C(=O)c2cn(-c4cccc(Cl)c4F)nn2)C3C(=O)Nc2ccc(C(=O)O)cc2)cc1 (centres unmarked) [Example 6, 4-(2-(1-(3-Chloro-2-fluorophenyl)-1H-1,2,3-triazole-4-carbonyl)-5-(4-((2-(dimethylamino)ethyl)carbamoyl)phenyl)-1,2,3,4-tetrahydroisoquinoline-1-carboxamido)benzoic acid] | 2.4 nM | < 5 nM |  |
| NCc1cccc2c1CCN(C(=O)c1cn(-c3cccc(Cl)c3F)nn1)C2C(=O)Nc1ccc(C(=O)O)cc1 (centres unmarked) [Example 109, 4-(5-(Aminomethyl)-2-(1-(3-chloro-2-fluorophenyl)-1H-1,2,3-triazole-4-carbonyl)-1,2,3,4-tetrahydroisoquinoline-1-carboxamido)benzoic acid, TFA salt] | 2.29 nM | 14.5 nM |  |
| CN1CCN(c2cccc3c2CCN(C(=O)c2cn(-c4cccc(Cl)c4F)nn2)[C@@H]3C(=O)Nc2ccc(C(=O)O)cc2)C(=O)C1 [Example 80, (S)-4-(2-(1-(3-chloro-2-fluorophenyl)-1H-1,2,3-triazole-4-carbonyl)-5-(4-methyl-2-oxopiprazin-1-yl)-1,2,3,4-tetrahydroisoquinoline-1-carboxamido)benzoic acid, HCl] | 6.37 nM | < 5 nM |  |
| COC1CCN(c2cccc3c2CCN(C(=O)C2CC(c4c(F)ccc(Cl)c4F)=NO2)C3C(=O)Nc2ccc(C(=O)O)cc2)CC1 (centres unmarked) [Example 256, 4-(2-(3-(3-chloro-2,6-difluorophenyl)-4,5-dihydroisoxazole-5-carbonyl)-5-(4-methoxypiperidin-1-yl)-1,2,3,4-tetrahydroisoquinoline-1-carboxamido)benzoic acid, TFA salt] |  |  | Ki [1, 5]: 198 nM; Ki [2, 6]: 12.5 nM |
| COC1CCN(c2cccc3c2CCN(C(=O)C2CC(=O)N(c4cccc(Cl)c4F)C2)C3C(=O)Nc2ccc(C(=O)O)cc2)CC1 (centres unmarked) [Example 255, 4-(2-(1-(3-chloro-2-fluorophenyl)-5-oxopyrrolidine-3-carbonyl)-5-(4-methoxypiperidin-1-yl)-1,2,3,4-tetrahydroisoquinoline-1-carboxamido)benzoic acid, TFA salt] |  |  | Ki [1, 5]: 218 nM; Ki [2, 6]: 7.13 nM |
| CN1CCN(c2cccc3c2CCN(C(=O)c2cn(-c4cccc(Cl)c4F)nn2)[C@H]3C(=O)Nc2ccc(C(=O)O)cc2)CC1=O [Example 288, (R)-4-(2-(1-(3-chloro-2-fluorophenyl)-1H-1,2,3-triazole-4-carbonyl)-5-(4-methyl-3-oxopiperazin-1-yl)-1,2,3,4-tetrahydroisoquinoline-1-carboxamido)benzoic acid, TFA salt] | 824 nM | 155 nM |  |

Continued, in another order:

| Ki [1, 3] | Ki [2, 4] | SMILES | also measured |
| --- | --- | --- | --- |
| 28.8 nM |  | COC1CCN(c2cccc3c2CCN(C(=O)c2cnn(-c4cccc(Cl)c4F)c2N)C3C(=O)Nc2ccc(C(=O)O)cc2)CC1 (racemic) [Example 309, 4-(2-(5-amino-1-(3-chloro-2-fluorophenyl)-1H-pyrazole-4-carbonyl)-5-(4-methoxypiperidin-1-yl)-1,2,3,4-tetrahydroisoquinoline-1-carboxamido)benzoic acid, 2 TFA salt] | Ki [2]: < 5 nM |
| 16.9 nM | 14.7 nM | CN(C)C1CCN(c2cccc3c2CCN(C(=O)c2cnn(-c4cccc(Cl)c4F)c2)C3C(=O)Nc2ccc(OCC3CCCO3)cc2)CC1 (centres unmarked) [Example 95, 2-(1-(3-chloro-2-fluorophenyl)-1H-pyrazole-4-carbonyl)-5-(4-(dimethylamino)piperidin-1-yl)-N-(4-((tetrahydrofuran-2-yl)methoxy)phenyl)-1,2,3,4-tetrahydroisoquinoline-1-carboxamide, TFA salt] |  |
| 5.6 nM | < 5 nM | CN(C)C(=O)C1CCN(c2cccc3c2CCN(C(=O)c2cn(-c4cccc(Cl)c4F)nn2)C3C(=O)Nc2ccc(C(=O)O)cc2)CC1 (centres unmarked) [Example 56, 4-(2-(1-(3-chloro-2-fluorophenyl)-1H-1,2,3-triazole-4-carbonyl)-5-(4-(dimethylcarbamoyl)piperidin-1-yl)-1,2,3,4-tetrahydroisoquinoline-1-carboxamido)benzoic acid, TFA salt] |  |
| 3.84 nM | < 5 nM | O=C(O)c1ccc(NC(=O)[C@@H]2c3cccc(N4CCOCC4)c3CCN2C(=O)c2cn(-c3cccc(Cl)c3F)cn2)cc1 [Example 91, (S)-4-(2-(1-(3-Chloro-2-fluorophenyl)-1H-imidazole-4-carbonyl)-5-morpholino-1,2,3,4-tetrahydroisoquinoline-1-carboxamido)benzoic acid, TFA salt] |  |
| 494 nM | 289 nM | CN(C)C1CCN(c2cccc3c2CCN(C(=O)c2cn(-c4cccc(Cl)c4F)nn2)[C@H]3C(=O)Nc2ccc(C(N)=O)cc2)CC1 [Example 100, (R)-N-(4-Carbamoylphenyl)-2-(1-(3-chloro-2-fluorophenyl)-1H-1,2,3-triazole-4-carbonyl)-5-(4-(dimethylamino)piperidin-1-yl)-1,2,3,4-tetrahydroisoquinoline-1-carboxamide, bis-TFA salt] |  |
|  | 816 nM | COC1CCN(c2cccc3c2CCN(C(=O)c2cnn(-c4ccnc(C)c4)c2)C3C(=O)Nc2ccc(C(=O)O)cc2)CC1 (centres unmarked) [Example 327, 4-(5-(4-Methoxypiperidin-1-yl)-2-(1-(2-methylpyridin-4-yl)-1H-pyrazole-4-carbonyl)-1,2,3,4-tetrahydroisoquinoline-1-carboxamido)benzoic acid, TFA salt] | Ki ([1]; measured at 37° C. (*)): > 6000 nM |
